According to patent US9993494B2, “Compositions and methods for treating fibrotic disease” (eFFECTOR Therapeutics, Inc., priority 2014, dated 2018):

Test system: normal human lung fibroblasts
Assay: Ribosomal profiling: translational efficiency in TGFβ-treated fibroblasts
Type: cell-based
Details: TGFβ-treated fibroblasts
Procedure, shortened: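 Genome-wide RPF and total RNA libraries (ARTseq, RNA-Seq) were made from lysates of cycloheximide-treated, PBS-washed cells. After trimming and human-genome mapping, per-gene coding-region counts were compared between RPF and RNA for translational efficiency. Genes scoring low in either fraction were dropped.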

CC(C=CC(=O)NO)=CC(C)C(=O)c1ccc(N(C)C)cc1 (stereo not drawn) [TSA, 7-[4-(dimethylamino)phenyl]-N-hydroxy-4,6-dimethyl-7-oxohepta-2,4-dienamide]
++ (++ = 1.5 to 2.0): renormalizing the translational profile of PDE7B (ENSG00000171408) | renormalizing the translational profile of LPAR3 (ENSG00000171517)
− (− = <0.9): renormalizing the translational profile of RPL9 (ENSG00000163682) | renormalizing the translational profile of RHOBTB3 (ENSG00000164292) | renormalizing the translational profile of RPL36AL (ENSG00000165502) | renormalizing the translational profile of RPL27A (ENSG00000166441) | renormalizing the translational profile of RP11-382A20.3.1 (ENSG00000166503) | renormalizing the translational profile of ANKDD1A (ENSG00000166839) | renormalizing the translational profile of RPL13 (ENSG00000167526) | renormalizing the translational profile of KIAA1024 (ENSG00000169330) | renormalizing the translational profile of HTRA3 (ENSG00000170801) | renormalizing the translational profile of CTPS (ENSG00000171793) | renormalizing the translational profile of QARS (ENSG00000172053) | renormalizing the translational profile of RPL38 (ENSG00000172809) | renormalizing the translational profile of MRPL45 (ENSG00000174100) | renormalizing the translational profile of RPL4 (ENSG00000174444) | renormalizing the translational profile of RPL15 (ENSG00000174748) | renormalizing the translational profile of DES (ENSG00000175084) | renormalizing the translational profile of EIF3F (ENSG00000175390) | renormalizing the translational profile of C14orf49 (ENSG00000176438) | renormalizing the translational profile of RPLP2 (ENSG00000177600) | renormalizing the translational profile of IMPDH2 (ENSG00000178035) | renormalizing the translational profile of DNAJC22 (ENSG00000178401) | renormalizing the translational profile of RPL35A (ENSG00000182899) | renormalizing the translational profile of LENG9 (ENSG00000182909) | renormalizing the translational profile of C22orf32 (ENSG00000183172) | renormalizing the translational profile of NPW (ENSG00000183971) | renormalizing the translational profile of ROBO2 (ENSG00000185008) | renormalizing the translational profile of PTCH1 (ENSG00000185920) | renormalizing the translational profile of POLR1D (ENSG00000186184) | renormalizing the translational profile of DYNC2H1 (ENSG00000187240) | renormalizing the translational profile of LRRK2 (ENSG00000188906) | renormalizing the translational profile of NACA (ENSG00000196531) | renormalizing the translational profile of LAMB3 (ENSG00000196878) | renormalizing the translational profile of RPL37A (ENSG00000197756) | renormalizing the translational profile of RPL12 (ENSG00000197958) | renormalizing the translational profile of LPAR1 (ENSG00000198121) | renormalizing the translational profile of RPL23A (ENSG00000198242) | renormalizing the translational profile of PLN (ENSG00000198523) | renormalizing the translational profile of RPL10A (ENSG00000198755) | renormalizing the translational profile of CES1 (ENSG00000198848) | renormalizing the translational profile of RPL39 (ENSG00000198918) | renormalizing the translational profile of CARD16 (ENSG00000204397) | renormalizing the translational profile of MICA (ENSG00000204520) | renormalizing the translational profile of GNB2L1 (ENSG00000204628) | renormalizing the translational profile of RPL17 (ENSG00000215472) | renormalizing the translational profile of RPL41 (ENSG00000229117) | renormalizing the translational profile of CHCHD10 (ENSG00000250479) | renormalizing the translational profile of EEF1G (ENSG00000254772) | effect in renormalizing the translational profile of the gene (gene RPS2 (ENSG00000140988)) | effect in renormalizing the translational profile of the gene (gene RPS3 (ENSG00000149273)) | effect in renormalizing the translational profile of the gene (gene RPS3A (ENSG00000145425)) | effect in renormalizing the translational profile of the gene (gene RPS4X (ENSG00000198034)) | effect in renormalizing the translational profile of the gene (gene RPS4Y1 (ENSG00000129824)) | effect in renormalizing the translational profile of the gene (gene RPS5 (ENSG00000083845))
13 genes: number of genes whose translational efficiency was uniquely modulated by the compound (duplicate ribosomal profiles)
+ (+ = 0.9 to 1.5): renormalizing the translational profile of EEF2 (ENSG00000167658) | renormalizing the translational profile of CA5B (ENSG00000169239) | renormalizing the translational profile of MURC (ENSG00000170681) | renormalizing the translational profile of CLCF1 (ENSG00000175505) | renormalizing the translational profile of AMIGO3 (ENSG00000176020) | renormalizing the translational profile of PDE4B (ENSG00000184588) | renormalizing the translational profile of RPL14 (ENSG00000188846) | renormalizing the translational profile of PCBP2 (ENSG00000197111) | renormalizing the translational profile of MAP3K5 (ENSG00000197442) | renormalizing the translational profile of ARPC1A (ENSG00000241685)
